What was measured:
[1] = Tolerability in CD1 mice: liver function (Example 41); details: 50 mg/kg s.c. twice per week for 6 weeks, plasma
[2] = Tolerability in CD1 mice: liver function, ALT, AST, bilirubin, albumin (Example 33); details: plasma, 50 mg/kg s.c. twice a week
Protocol: A control group of five mice was injected subcutaneously with PBS for 2 weeks. All experimental groups (i.e. ASO treated mice at 2, 4, 6 weeks) were compared to the control group (i.e. PBS, 2 weeks).
To evaluate the effect of ISIS oligonucleotides on hepatic function, plasma concentrations of transaminases were measured using an automated clinical chemistry analyzer (Hitachi Olympus AU400e, Melville, N.Y.). […] Plasma levels of bilirubin and albumin were also measured using the same clinical chemistry analyzer and expressed in mg/dL.

[3] = Tolerability in CD1 mice: body weight and organ weight (Example 41); details: 50 mg/kg s.c. twice per week for 6 weeks
[4] = Tolerability in Sprague-Dawley rats: hematology assays (Example 35); details: 50 mg/kg s.c. twice per week for 6 weeks
Protocol: A control group of four Sprague Dawley rats was injected subcutaneously with PBS twice per week for 6 weeks. Body weight measurements were taken before and throughout the treatment period. Urine samples were taken before the start of treatment. Three days after the last dose, urine samples were taken and the rats were sacrificed. Organ weights were measured and blood was collected for further analysis.
Blood obtained from all rat groups were sent to Antech Diagnostics for hematocrit (HCT), mean corpuscular volume (MCV), mean corpuscular hemoglobin (MCV), and mean corpuscular hemoglobin concentration (MCHC) measurements and analyses, as well as measurements of various blood cells, such as WBC (neutrophils, lymphocytes and monocytes), RBC, and platelets as well as hemoglobin content.

[5] = Bleeding assay, Surgicutt Jr. device (Example 45); assay type: in vivo, cynomolgus monkeys; set-up: unit not given here
Protocol: (§1) Groups, each consisting of two male and three female monkeys, were injected subcutaneously with ISIS 416838, ISIS 416850, ISIS 416858, ISIS 416864, or ISIS 417002 in escalating doses. Antisense oligonucleotide was administered to the monkeys at 5 mg/kg three times per a week for week 1; 5 mg/kg twice per week for weeks 2 and 3; 10 mg/kg three times per week for week 4; 10 mg/kg twice per week for weeks 5 and 6; 25 mg/kg three times per week for week 7; and 25 mg/kg twice per week for weeks 8, 9, 10, 11, and 12. One control group, consisting of two male and three female monkeys, was injected subcutaneously with PBS according to the same dosing regimen. An additional experimental group, consisting of two male and three female monkeys, was injected subcutaneously with ISIS 416850 in a chronic, lower dose regimen. Antisense oligonucleotide was administered to the monkeys at 5 mg/kg three times per week for week 1; 5 mg/kg twice per week for week 2 and 3; 10 mg/kg three times per week for week 4; and 10 mg/kg twice per week for weeks 5 to 12. Body weights were measured weekly. Blood samples were collected 14 days and 5 days before the start of treatment and subsequently once per week for Factor 11 protein activity analysis in plasma, fibrinogen measurement, PT and aPTT measurements, bleeding times, and measurement of various hematologic factors. On day 85, the monkeys were euthanized by exsanguination while under deep anesthesia, and organs harvested for further analysis.
On different days during the treatment period, bleeding assay was performed using a Surgicutt Jr. device (ITC, New Jersey). Monkeys were placed in monkey chair with their arm placed in a steady support. The arm was lightly shaved and a sphygmomanometer was placed on the upper arm. The cuff of the sphygmomanometer was inflated to 40 mm Hg and this pressure was maintained throughout the procedure. The area on the upper arm to be incised was cleansed with an antiseptic swab and the Surgicutt Jr device was used to make an incision over the lateral aspect, volar surface of the forearm, parallel to and 5 cm below the antecubital crease. At the exact moment the incision was made, a stopwatch was started. Every 30 seconds, blood from the incision was blotted out using a blotting paper without directly touching the incision, so that formation of the platelet plug was not disturbed. Blood was blotted out every 30 seconds until blood no longer stained the paper. The stopwatch was then stopped and the bleeding time determined. The sphygmomanometer was removed from the animal's arm, the incision site was antiseptically swabbed and a wound closure strip applied. The ISIS oligonucleotide, ISIS 416850, given with the chronic dose regimen is distinguished from the other oligonucleotides with an asterisk (*).

platelet aggregation = assay: Platelet aggregation assay, ADP and/or collagen (Example 45); assay type: in vivo, cynomolgus monkeys
Protocol: as §1
Platelet aggregation was initiated by adding 1 mmol/L ADP and/or 3 μg collagen (depending on the collection day, as outlined in Table 121) to plasma samples, and was allowed to proceed for 10 minutes. Aggregation was characterized by recording the change in the electrical resistance or impedance and the change in the initial slope of aggregation after platelet shape change. The aggregation test was performed twice per sample on each collection day and the average value was taken. The ISIS oligonucleotide, ISIS 416850, given with the chronic dose regimen is distinguished from the other oligonucleotides with an asterisk (*).

[6] = Tolerability in CD1 mice: body weight and organ weights (Example 37); details: 50 mg/kg s.c. twice per week for 6 weeks
Protocol: Body weight was measured at the onset of the study and subsequently twice per week. The body weights of the mice are presented in Table 80 and are expressed increase in grams over the PBS control weight taken before the start of treatment. Liver, spleen, and kidney weights were measured at the end of the study, and are also presented in Table 80 as percentage of the body weight.

[7] = Tolerability in Sprague-Dawley rats: liver function (Example 35); details: plasma, 50 mg/kg s.c. twice per week for 6 weeks
[8] = increase in grams over the PBS control weight taken before the start of treatment

ISIS 416850: MOE gapmer, nucleobases 1275 to 1318 of SEQ ID NO: 1 (Table 8) (antisense TGCACAGTTTCTGGCAGGCC; MOE gapmer, wing and gap sizes not given here)
ALT [1]: 90 IU/L
AST [1]: 115 IU/L
Albumin [1]: 3.2
Bilirubin [1]: 0.20 mg/dL
ALT ([2]; 2 weeks): 67 IU/L
AST ([2]; 2 weeks): 72 IU/L
Albumin ([2]; 2 weeks): 3.6
Bilirubin ([2]; 2 weeks): 0.46 mg/dL
ALT ([2]; 4 weeks): 58 IU/L
AST ([2]; 4 weeks): 88 IU/L
Albumin ([2]; 4 weeks): 3.5
Bilirubin ([2]; 4 weeks): 0.23 mg/dL
ALT ([2]; 6 weeks): 102 IU/L
AST ([2]; 6 weeks): 97 IU/L
Albumin ([2]; 6 weeks): 3.1
Bilirubin ([2]; 6 weeks): 0.22 mg/dL
body weight [3, 8]: 11 g
Kidney weight ([3]; percentage of the body weight): 1.5%
Liver weight ([3]; percentage of the body weight): 6%
Spleen weight ([3]; percentage of the body weight): 0.4%
Platelets [4]: 26 10^3/μL
RBC [4]: 7
WBC [4]: 16 nL⁻¹
lymphocytes [4]: 8%
monocytes [4]: 11%
neutrophils [4]: 48%
HCT ([4]; title says % control): 5%
MCH ([4]; title says % control): 4
MCHC ([4]; title says % control): 2%
MCV ([4]; title says % control): 3
bleeding time ([5]; day 15, chronic dose regimen (*)): 149
bleeding time ([5]; day 15, escalating dose regimen): 165
bleeding time ([5]; day 22, chronic dose regimen (*)): 143
bleeding time ([5]; day 22, escalating dose regimen): 151
bleeding time ([5]; day 36, chronic dose regimen (*)): 221
bleeding time ([5]; day 36, escalating dose regimen): 137
bleeding time ([5]; day 43, chronic dose regimen (*)): 156
bleeding time ([5]; day 43, escalating dose regimen): 216
bleeding time ([5]; day 57, escalating dose regimen): 195
bleeding time ([5]; day 64, escalating dose regimen): 201
bleeding time ([5]; day 78, escalating dose regimen): 203
bleeding time ([5]; day 85, escalating dose regimen): 201
bleeding time ([5]; day −5, chronic dose regimen (*)): 93
bleeding time ([5]; day −5, escalating dose regimen): 127
bleeding time ([5]; day −14, chronic dose regimen (*)): 177
bleeding time ([5]; day −14, escalating dose regimen): 172
platelet aggregation (platelet aggregation; day 15 (with ADP), chronic dose regimen (*)): 14 Ohms
platelet aggregation (platelet aggregation; day 15 (with ADP), escalating dose regimen): 12 Ohms
platelet aggregation (platelet aggregation; day 36 (with ADP), chronic dose regimen (*)): 11.6 Ohms
platelet aggregation (platelet aggregation; day 36 (with ADP), escalating dose regimen): 16 Ohms
platelet aggregation (platelet aggregation; day 43 (with collagen), chronic dose regimen (*)): 21 Ohms
platelet aggregation (platelet aggregation; day 43 (with collagen), escalating dose regimen): 16 Ohms
platelet aggregation (platelet aggregation; day 57 (with ADP), escalating dose regimen): 18 Ohms
platelet aggregation (platelet aggregation; day 64 (with collagen), escalating dose regimen): 17 Ohms
platelet aggregation (platelet aggregation; day 78 (with ADP), escalating dose regimen): 9 Ohms
platelet aggregation (platelet aggregation; day 85 (with ADP), escalating dose regimen): 22 Ohms
platelet aggregation (platelet aggregation; day 85 (with collagen), escalating dose regimen): 26 Ohms
platelet aggregation (platelet aggregation; day −5 (with collagen), chronic dose regimen (*)): 21 Ohms
platelet aggregation (platelet aggregation; day −5 (with collagen), escalating dose regimen): 23 Ohms
body weight [6, 8]: 12 g
Kidney weight ([6]; percentage of the body weight): 1.6%
Liver weight ([6]; percentage of the body weight): 6%
Spleen weight ([6]; percentage of the body weight): 0.4%
ALT [7]: 80 IU/L
AST [7]: 5 IU/L
Albumin [7]: 4
Bilirubin [7]: 1 mg/dL

Reference: patent US20230263822A1, “MODULATION OF FACTOR 11 EXPRESSION” (Ionis Pharmaceuticals, Inc., priority 2008, published 2023)
